Data taken from patent US9253987B2, “Antimicrobial agents and methods of use” (Hyprotek, Inc., priority 2010, dated 2016).

System: leukoplakia lesions within the oral cavity displaying invasive squamous cell carcinoma
Assay: Topical treatment of oral leukoplakia / squamous cell carcinoma lesion in a human subject
Assay type: in vivo
Conditions: same human subject, before the antimicrobial agent
Source text: In addition to the being diagnosed with chronic periodontitis, the subject developed leukoplakia lesions within the oral cavity displaying invasive squamous cell carcinoma with surrounding carcinoma-in-situ and dysplasia in the right mandibular gingival area. Visual inspection of the lesions appeared as white, translucent patches. […] Previously, the subject's dentists had attempted to treat the chronic periodontitis and leukoplakia with a succession of oral antibiotics, antifungal fluconazole and prolonged courses of chlorhexidine oral rinses, in addition to vigorous dental hygiene.
A single topical application of the antimicrobial agent of the present application in solution form was applied to the right lower mandibular gingival area while the right upper mandibular gingival area remained untreated. Visual inspection of the antimicrobial agent-treated area produced noticeable reduction in both the size and severity of the lesion within approximately 10 hours. Continued daily or twice-daily applications of the antimicrobial agent solution to the right lower mandibular gingival area over 12 days were effective to further reduce the lesion to approximately 1 mm. […] In contrast, the pathology of the untreated right upper mandibular gingival area continued to display signs of invasive squamous cell carcinoma and was only finally removed by surgery post treatment.

OC(Cn1cncn1)(Cn1cncn1)c1ccc(F)cc1F [fluconazole]
outcome of previous therapy of chronic periodontitis and leukoplakia: failed significantly to improve their condition

[H]/N=C(\N/C(=N/[H])NCCCCCCNC(=N)NC(=N)Nc1ccc(Cl)cc1)Nc1ccc(Cl)cc1 [chlorhexidine]
outcome of previous therapy of chronic periodontitis and leukoplakia: failed significantly to improve their condition
